# In US20130205449A1, “Methods and Compositions for Production of Triploid Sterile Plants” (University of Connecticut, priority 2011, published 2013):
# Tests used:
# Type in all cases: cell-based, Euonymus alatus
# [1] = tested on: shoots from embryo or endosperm-derived calli; test: Rooting of regenerated shoots
# Experimental: After shoot buds were formed from embryo or endosperm-derived calli, they were transferred together with their callus explants into Magenta boxes containing the MS medium supplemented with 4.44 μM BA and 0.49 μM IBA for further growth. When the shoots grew to 1 to 2 cm in height, they were excised from callus tissues and cultured on root induction Medium I, which included half strength WPM (Lloyd and McCown, 1980, Proc. Intl. Plant Prop. Soc., 30:421-427) with 2% sucrose, 0.04% ammonium nitrate, 0.4% agar, 0.14% phytagel (a blended agar and phytagel medium was used to produce a totally transparent medium so that initiation and growth of roots could be easily monitored), and 4.9 μM IBA (Clements, 2007, In vitro induction of polyploidy, rooting, and overcoming the dormancy limitations of Euonymus alatus ‘Compactus,” MS Thesis, Univ. of. Conn., p. 536)). Two weeks later, the shoots were transferred onto rooting Medium II (Clements, 2007), which was IBA-free rooting Medium I with 2 g/L activated charcoal (Kang et al., 2009). The pH of the rooting media was adjusted to 5.2 with KOH or HCl before the addition of gelling agents. The root cultures were transferred to fresh medium every four weeks. […]
# [2] = tested on: immature endosperm-derived calli of E. alatus ‘Compactus’; test: Shoot bud induction from immature endosperm-derived calli; details: zeatin at 9.13 or 18.26 μM, kinetin at 9.30 or 18.60 μM, in the presence of 0.49 μM IBA
# Experimental: (§1) Except for rooting, all the media described herein were composed of MS salts (Murashige and Skoog, 1962) with 100 mg/L myo-inositol, 2.0 mg/L glycine, 1.0 mg/L thiamine-HCl, 0.5 mg/L nicotinic acid, 0.5 mg/L pyridoxine-HCl, 0.3 g/L casein hydrolysate, 0.5 g/L 2-(Nmorpholino) ethanesulfonic acid, 30.0 g/L sucrose, and 7.0 g/L agar. The pH of all culture media was adjusted to 5.8 with KOH or HCl before addition of agar. All media were autoclaved at 121° C. for 20 minutes, and all the cultures, except for those specifically mentioned, were maintained at 23±2° C. under 35 to 45 μmol/m^2s light provided by white cool fluorescent tube lamps over a 16-hour photoperiod.
# After 12 weeks of culture, compact, greenish calli formed on six callus induction media supplemented with 2.22, 4.44, or 8.88 μM BA and 2.69 or 5.38 μM NAA were cut into pieces (approximately 0.5 cm×0.5 cm in size) and transferred to the petri dishes containing shoot induction media supplemented with 4.44 or 13.32 μM BA, 9.13 or 18.26 μM zeatin, and 9.30 or 18.60 μM kinetin plus 0.49 μM IBA or 0.57 μM indole-3-acetic acid (IAA). Callus segments also were cultured on hormone free MS medium as a control. […] Bud (shoot bud) formation was recorded at Week 8 of culture. Bud induction rates were calculated by dividing the number of calli forming shoot buds by the number of calli cultured. […]
# [3] = tested on: E. alatus ‘Compactus’ immature endosperm explants; test: Callus induction from immature endosperm explants; details: in combination with the same concentration of BA
# Experimental: as §1
# Endosperm tissues with seedcoats and embryos completely removed were used for triploid callus induction (FIG. 1A). […]
# Seed coats and embryos were removed, and the immature endosperm explants were cultured in disposable petri dishes (90×20 mm) containing MS medium supplemented with different combinations of four concentrations of BA (2.22, 4.44, 8.88, and 17.76 μM), three concentrations of NAA (2.69, 5.38, and 10.76 μM), and two concentrations of 2,4-dichlorophenoxy-acetic acid (2,4-D) (2.26 and 9.04 μM) to induce callus formation. […] Callus formation data were recorded at Week 12 of culture, and mean number of immature endosperm explants forming calli was calculated based on three replicates for each treatment. […]
compound,measurement,setting,value
"O=C(O)CCCc1c[nH]c2ccccc12 [IBA, indole-3-butyric acid]",Shoots developed into healthy plants with well-developed roots,"[1]; Medium I with 4.9 μM IBA two weeks, then IBA-free Medium II with 2 g/L activated charcoal, within 10 weeks of culture",85%
same,Shoots rooted,"[1]; WPM with 4.9 μM IBA for two weeks, then hormone-free WPM with 2.0 g/L activated charcoal for four weeks",Eighty five percent
c1coc(CNc2ncnc3[nH]cnc23)c1 [kinetin],Bud formation,[2],failed to induce bud formation
"O=C(O)COc1ccc(Cl)cc1Cl [2,4-D, 2,4-dichlorophenoxy-acetic acid]",Effectiveness in callus induction compared with NAA,[3],less effective in callus induction than NAA
C/C(=C\CNc1ncnc2[nH]cnc12)CO [zeatin],Bud formation,[2],failed to induce bud formation
